In one test the target is T1, NK-1 receptor (Homo sapiens, UniProt P25103).
T1 construct: In this assay an aliquot of IM9 cells; endogenous in cells; host or cells: IM9 cells
Nature of the test: NK-1 Receptor Binding Assay (125I-labeled substance P, IM9 cells). Particulars: inhibition of 125I-substance P binding to IM9 cells, 45 minutes at 4° C.; certain values may be average of more than one experiment. The procedure:
(§1) The biological activity of the compounds of the present invention is evaluated employing an initial screening assay which rapidly and accurately measured the binding of the tested compound to known NK-1 and NK-2 receptor sites. Assays useful for evaluating tachykinin receptor antagonists are well known in the art. See, e.g., J. Jukic, et al., Life Sciences, 49:1463-1469 (1991); N. Kucharczyk, et al., Journal of Medicinal Chemistry, 36:1654-1661 (1993); N. Rouissi, et al., Biochemical and Biophysical Research Communications, 176:894-901 (1991).
NK-1 Receptor Binding Assay
Radioreceptor binding assays are performed using a derivative of a previously published protocol. D. G. Payan, et al., Journal of Immunology, 133:3260-3265 (1984). In this assay an aliquot of IM9 cells (1×10^6 cells/tube in […] medium supplemented with 10% fetal calf serum) is incubated with 20 pM ^125 I-labeled substance P in the presence of increasing competitor concentrations for 45 minutes at 4° C.
The IM9 cell line is a well-characterized cell line which is readily available to the public. See, e.g., Annals of the New York Academy of Science, 190: 221-234 (1972); Nature (London), 251:443-444 (1974); Proceedings of the National Academy of Sciences (USA), 71:84-88 (1974). These cells are routinely cultured in RPMI 1640 supplemented with 50 μg/ml gentamicin sulfate and 10% fetal calf serum.
The reaction is terminated by filtration through a glass fiber filter harvesting system using filters previously soaked for 20 minutes in 0.1% polyethylenimine. Specific binding of labeled substance P is determined in the presence of 20 nM unlabeled ligand.
(§2) Column 1 provides the example number of the test antagonist compound as detailed supra. The next columns define the concentration of the test compound (in nanomolar quantities) which inhibits fifty percent of the binding of the appropriate neurokinin, as defined in the column heading. Certain values may represent the average of more than one experiment.

The target of a further test is T2, human NK-2 receptor (Homo sapiens, UniProt P21452).
T2 construct: expressed in transfected cells; host or cells: CHO-hNK-2R cells (membranes)
T2 sequence (P21452 1-398): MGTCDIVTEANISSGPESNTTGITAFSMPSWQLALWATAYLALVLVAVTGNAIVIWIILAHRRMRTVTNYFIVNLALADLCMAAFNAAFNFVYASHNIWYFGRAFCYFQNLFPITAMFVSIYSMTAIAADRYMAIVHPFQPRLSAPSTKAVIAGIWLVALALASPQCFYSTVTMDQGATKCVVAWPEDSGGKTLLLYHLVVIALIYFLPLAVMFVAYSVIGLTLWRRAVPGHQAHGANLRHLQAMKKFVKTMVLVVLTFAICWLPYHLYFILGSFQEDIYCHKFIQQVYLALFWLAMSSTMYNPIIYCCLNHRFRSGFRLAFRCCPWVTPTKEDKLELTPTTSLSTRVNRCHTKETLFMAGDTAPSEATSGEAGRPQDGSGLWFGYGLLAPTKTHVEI
Nature of the test: NK-2 Receptor Binding Assay ([125I]iodohistidyl-neurokinin A, CHO-hNK-2R membranes). The following applies: inhibition of [125I]iodohistidyl-neurokinin A binding, 1 hour at room temperature, certain values may be average of more than one experiment. The procedure:
as §1
NK-2 Receptor Binding Assay
The CHO-hNK-2R cells, a CHO-derived cell line transformed with the human NK-2 receptor, expressing about 400,000 such receptors per cell, are grown in 75 cm^2 flasks or roller bottles in minimal essential medium (alpha modification) with 10% fetal bovine serum. The gene sequence of the human NK-2 receptor is given in N. P. Gerard, et al., Journal of Biological Chemistry, 265:20455-20462 (1990).
For preparation of membranes, 30 confluent roller bottle cultures are dissociated by washing each roller bottle with 10 ml of Dulbecco's phosphate buffered saline (PBS) without calcium and magnesium, followed by addition of 10 ml of enzyme-free cell dissociation solution (PBS-based, from Specialty Media, Inc.). After an additional 15 minutes, the dissociated cells are pooled and centrifuged at 1,000 RPM for 10 minutes in a clinical centrifuge. Membranes are prepared by homogenization of the cell pellets in 300 ml 50 mM Tris buffer, pH 7.4 with a Tekmar® homogenizer for 10-15 seconds, followed by centrifugation at 12,000 RPM (20,000 x g) for 30 minutes using a Beckman JA-14® rotor. The pellets are washed once using the above procedure. and the final pellets are resuspended in 100-120 ml 50 mM Tris buffer, pH 7.4, and 4 ml aliquots stored frozen at -70° C. The protein concentration of this preparation is 2 mg/ml.
For the receptor binding assay, one 4-ml aliquot of the CHO-hNK-2R membrane preparation is suspended in 40 ml of assay buffer containing 50 mM Tris, pH 7.4, 3 mM manganese chloride, 0.02% bovine serum albumin (BSA) and 4 μg/ml chymostatin. A 200 μl volume of the homogenate (40 μg protein) is used per sample. The radioactive ligand is [^125 I]iodohistidyl-neurokinin A (New England Nuclear, NEX-252), 2200 Ci/mmol. The ligand is prepared in assay buffer at 20 nCi per 100 μl; the final concentration in the assay is 20 pM. Non-specific binding is determined using 1 μM eledoisin. Ten concentrations of eledoisin from 0.1 to 1000 nM are used for a standard concentration-response curve.
All samples and standards are added to the incubation in 10 μl dimethylsulfoxide (DMSO) for screening (single dose) or in 5 μl DMSO for IC50 determinations. The order of additions for incubation is 190 or 195 μl assay buffer, 200 μl homogenate, 10 or 5 μl sample in DMSO, 100 μl radioactive ligand. The samples are incubated 1 hour at room temperature and then filtered on a cell harvester through filters which had been presoaked for two hours in 50 mM Tris buffer, pH 7.7, containing 0.5% BSA. The filter is washed 3 times with approximately 3 ml of cold 50 mM Tris buffer, pH 7.7. The filter circles are then punched into 12×75 mm polystyrene tubes and counted in a gamma counter.
as §2

A further test deals with benzodiazepine receptor. Particulars: Biochemical Pharmacology, 30:3016-3019 (1981); cited from earlier work.
The subject of a further test is rat alpha-fetoprotein. Particulars: Journal of Steroid Biochemistry, 16:503-507 (1982); in vitro; cited from earlier work.
A further test has as its system human erythrocytes. Particulars: Arzneim-Forsch, 32(I):684-685 (1982); in vitro; cited from earlier work.
The test system of test [1] is glucose transport in human erythrocytes. The following applies: Arzneim-Forsch, 32(I):684-685 (1982); in vitro; cited from earlier work.

Counter-ions that a name gives are not always drawn.

T1 sequence (P25103 whole entry): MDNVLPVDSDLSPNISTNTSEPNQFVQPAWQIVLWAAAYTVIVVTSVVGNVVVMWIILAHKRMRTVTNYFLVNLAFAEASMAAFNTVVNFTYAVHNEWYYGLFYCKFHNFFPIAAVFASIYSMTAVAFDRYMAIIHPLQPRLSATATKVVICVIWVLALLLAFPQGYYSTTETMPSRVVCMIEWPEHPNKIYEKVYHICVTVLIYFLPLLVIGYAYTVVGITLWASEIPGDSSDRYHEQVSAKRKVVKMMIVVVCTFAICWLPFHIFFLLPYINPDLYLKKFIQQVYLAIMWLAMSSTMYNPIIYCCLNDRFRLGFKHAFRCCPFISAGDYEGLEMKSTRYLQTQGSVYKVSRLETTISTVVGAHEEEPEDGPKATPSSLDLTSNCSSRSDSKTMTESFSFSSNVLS

For the compound `O=C(CN1CCC(Cc2ccccc2)CC1)NC(Cc1c[nH]c2ccccc12)C(=O)NCc1ccccc1Cl` (centres unmarked) [Example 1, N-(2-chlorobenzyl)-3-(1H-indol-3-yl)-2-[(4-benzylpiperidin-1-yl)acetyl]amino]propanamide hydrochloride salt], the IC50 (commonly the midpoint of a concentration-inhibition curve) is 290 nM on NK-1 receptor and 330 nM on human NK-2 receptor.
Regarding `O=C1CN(CC(=O)NC(Cc2c[nH]c3ccccc23)C(=O)NCc2ccccc2Cl)C(=O)CN1` (centres unmarked) [Example 2], the IC50 was 230 nM on NK-1 receptor and 1500 nM at human NK-2 receptor.
For `O=C(CN1CC(=O)N(Cc2ccccc2)CC1=O)NC(Cc1c[nH]c2ccccc12)C(=O)NCc1ccccc1` (centres unmarked) [Example 3], at human NK-2 receptor, the 50% inhibitory concentration (IC50) stood at 1500 nM.
Same read-out and setting: the same measure for `O=C(CN1CC(=O)N(Cc2ccccc2)CC1=O)NC(Cc1c[nH]c2ccccc12)C(=O)Nc1ccccc1` (centres unmarked) [Example 4]: 2100 nM; for `O=C(CN1CC(=O)N(Cc2ccccc2)CC1=O)NC(Cc1c[nH]c2ccccc12)C(=O)NCCc1ccccc1` (centres unmarked) [Example 5]: 740 nM.
In the case of `O=C(CN1CC(=O)N(Cc2ccccc2)CC1=O)NC(Cc1c[nH]c2ccccc12)C(=O)NCc1ccccc1Cl` (centres unmarked) [Example 6], the IC50 on NK-1 receptor was 41 nM; on human NK-2 receptor it was 82 nM.
Take `O=C(CN1CCCCC1)NC(Cc1c[nH]c2ccccc12)C(=O)NCc1ccccc1Cl` (centres unmarked) [Example 7]: the IC50 was 730 nM at NK-1 receptor and 2200 nM on human NK-2 receptor.
As to `CN1CCN(CC(=O)NC(Cc2c[nH]c3ccccc23)C(=O)NCc2ccccc2Cl)CC1` (centres unmarked) [Example 8], the IC50 at NK-1 receptor is 78 nM; on human NK-2 receptor it was 3400 nM.
In the same order, the values of `O=C(CN1CCN(c2ccccc2)CC1)NC(Cc1c[nH]c2ccccc12)C(=O)NCc1ccccc1Cl` (centres unmarked) [Example 9] are 30 nM and 240 nM.
The corresponding values for `O=C(CN1CCC(c2ccccc2)CC1)NC(Cc1c[nH]c2ccccc12)C(=O)NCc1ccccc1Cl` (centres unmarked) [Example 10] are 140 nM and 570 nM.
Regarding `O=C(CN1CCN(Cc2ccccc2)CC1)NC(Cc1c[nH]c2ccccc12)C(=O)NCc1ccccc1Cl` (centres unmarked) [Example 13, N-(2-chlorobenzyl)-3-(1H-indol-3-yl)-2-[(4-benzylpiperazin-1-yl)acetyl]amino]propanamide dihydrochloride salt], the IC50 came to 34 nM on NK-1 receptor and 240 nM at human NK-2 receptor.
`COc1ccccc1CNC(=O)C(Cc1c[nH]c2ccccc12)NC(=O)CN1CCN(c2ccccc2)CC1` (centres unmarked) [Example 14]: the IC50 on NK-1 receptor is 67 nM; at human NK-2 receptor, 650 nM.
For `CN(Cc1ccccc1)C(=O)C(Cc1c[nH]c2ccccc12)NC(=O)CN1CCN(c2ccccc2)CC1` (centres unmarked) [Example 15], on NK-1 receptor, the IC50 was 180 nM.
Consider `O=C(CN1CCN(c2ccccc2)CC1)NC(Cc1c[nH]c2ccccc12)C(=O)NCc1ccccc1` (centres unmarked) [Example 16], for which the IC50 at NK-1 receptor is 140 nM; at human NK-2 receptor, 430 nM.
For the compound `O=C(CN1CCN(c2ccccc2)CC1)NC(Cc1c[nH]c2ccccc12)C(=O)NCc1ccc(Cl)cc1` (centres unmarked) [Example 17], the IC50 on NK-1 receptor and at human NK-2 receptor was 210 nM each time.
As for `CN1CC(=O)N(CC(=O)NC(Cc2c[nH]c3ccccc23)C(=O)NCc2ccccc2Cl)CC1=O` (centres unmarked) [Example 18], the concentration for half-maximal inhibition (IC50) at NK-1 receptor is 95 nM; at human NK-2 receptor, 3100 nM.
`NC(Cc1c[nH]c2ccccc12)C(=O)OCc1ccccc1` (centres unmarked) [benzyl 3-(3-indolyl)-2-aminopropionate]: the “Inhibition of benzodiazepine receptor binding in vitro” value in the test on benzodiazepine receptor is on record as “Inhibition”. For the same compound, the “inhibition of estrogen binding to rat alpha-fetoprotein” value in the test with rat alpha-fetoprotein is recorded as “weak inhibition”.
As for `CC(N)(C(=O)OCc1ccccc1)c1c[nH]c2ccccc12` (centres unmarked) [benzyl (2-(3-indolyl)-2-aminopropionate], the antisickling activity result in the test with human erythrocytes was “antisickling agent”. In test [1], the “inhibition of glucose transport in human erythrocytes” value was “inhibitor of glucose transport”.

Values taken from patent publication US5565568A, “2-acylaminopropanamides as tachykinin receptor antagonists” (Eli Lilly and Company, priority 1995, dated 1996).
